Source: patent US9655887B2, “Pharmaceutical composition and the use thereof, and application regime of said pharmaceutical composition for on-demand contraception” (BAYER PHARMA AKTIENGESELLSCHAFT, priority 2013, dated 2017)
Like-named read-outs stand apart in the source and are kept apart here.

Key:
human PGD receptor (hDP) = target: T1, human PGD receptor (hDP) (Homo sapiens, UniProt Q13258); experiment: cAMP antagonism test, human prostaglandin D receptor signal; assay type: cell-based; conditions: selectivity towards hDP, IC50 measured by cAMP antagonism test
T1 sequence (Q13258 1-359): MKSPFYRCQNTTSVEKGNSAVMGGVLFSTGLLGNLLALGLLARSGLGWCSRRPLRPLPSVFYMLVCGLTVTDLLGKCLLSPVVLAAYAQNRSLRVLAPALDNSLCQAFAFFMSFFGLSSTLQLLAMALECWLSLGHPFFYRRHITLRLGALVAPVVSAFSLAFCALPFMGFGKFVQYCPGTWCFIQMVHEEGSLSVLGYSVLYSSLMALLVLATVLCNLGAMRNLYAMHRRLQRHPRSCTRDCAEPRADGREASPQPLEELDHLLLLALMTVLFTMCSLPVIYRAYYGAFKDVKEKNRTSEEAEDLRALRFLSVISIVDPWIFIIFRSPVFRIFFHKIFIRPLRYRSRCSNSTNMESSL
Text: 3. Detection of Antagonism to the Human Prostaglandin D Receptor Signal
The binding of prostaglandin D2 to the human PGD receptor induces the activation of membrane-located adenylate cyclases and leads to the formation of cAMP. In the presence of the phosphodiesterase inhibitor IBMX, the cAMP accumulated owing to this stimulation and released by cell lysis is used in a competitive detection method. In this test, the cAMP present in the lysate competes with a fluorescence-labelled cAMP (cAMP-d2) for binding to an Eu cryptate-labelled anti-cAMP antibody.
(§1) In the absence of cellular cAMP, a maximal signal is produced, which is attributable to the binding of this cAMP-d2 molecule to the antibody. After excitation of the […] at 337 nm, there is a fluorescence resonance energy transfer (FRET) to the Eu cryptate molecules of the anti-cAMP antibody (labelled therewith), followed by a long-lasting emission signal at 665 nm (and at […]). Both signals are measured in a suitable measurement instrument with a time delay, i.e. after decay of the background fluorescence. Any increase in the low FRET signal caused by prostaglandin E2 administration (measured as well ratio change=emission665nm/emission620nm*10000) indicates the action of antagonists.
3.2.1. Test for Antagonism (Data Per Well of a 384-Well Plate):
(§2) To a test plate with the substance solutions already added (0.05 μl; 100% DMSO, concentration range from 0.8 nM-16.5 nM) were added 4 μl of a cAMP-d2/cell suspension (625000 cells/ml). After a 20-minute preincubation at room temperature (RT), 2 μl of a 3×PGD2 solution (6 nM, in PBS-IBMX) were added and incubated in the presence of the agonist for a further 30 mins at RT (volume: ˜6 μl). Next the reaction was stopped by addition of 2 μl of lysis buffer and incubated for a further 20 mins at RT before the actual measurement (volume: ˜8 μl).

[1] = target: EP4 subtype of the human PGE2 receptor (hEP4) (Homo sapiens, UniProt P35408); experiment: cAMP antagonism test, human prostaglandin E2 (subtype EP4) receptor signal; assay type: cell-based; conditions: selectivity towards hEP4, IC50 measured by cAMP antagonism test
Text: 2. Detection of Antagonism to the Human Prostaglandin E2 (Subtype EP4) Receptor Signal
The binding of PGE2 to the EP4 subtype of the human PGE2 receptor induces the activation of membrane-located adenylate cyclases and leads to the formation of cAMP. In the presence of the phosphodiesterase inhibitor IBMX, the cAMP accumulated owing to this stimulation and released by cell lysis is used in a competitive detection method. In this test, the cAMP present in the lysate competes with a fluorescence-labelled cAMP (cAMP-d2) for binding to an Eu cryptate-labelled anti-cAMP antibody.
as §1, with “cAMP” for “cAMP,”
2.2.1. Test for Antagonism (Data Per Well of a 384-Well Plate):
as §2, with “uM)” for “nM)”, “(312500” for “(625000”, “3×PGE2” for “3×PGD2”, “(0.3” for “(6”, “60” for “30”

[2] = test system: fertility of the female rat; experiment: Single administration of EP2 receptor antagonists and COX inhibitors alone or in combination, fertility of the rat (implantation sites); assay type: in vivo, female Han Wistar rats; conditions: single administration in proestrus, Indomethacin 1 mg/animal, 16:00
Description: 6. Effect of a Single Administration of EP2 Receptor Antagonists and COX Inhibitors Alone or in Combination on the Fertility of the Rat
In the experiments below, female Han Wistar rats having a weight of 200-270 g were used. The animals were kept in Makrolon cages in rooms with controlled lighting (12 hours of darkness; 12 hours of light), fed with a standard diet and provided with water ad libitum.
EP2 receptor antagonists were dissolved in benzyl benzoate/castor oil (1+4 v/v), and the dose was administered in a volume of 1 ml/kg of body weight s.c. Optionally, EP2 receptor antagonists were also administered orally in the same vehicle as the COX inhibitors (see below). […]
The COX inhibitors were suspended in a carrier liquid (85 mg of Myrj®53 polyoxyl(50)stearate; CAS No. 9004-99-3) in 100 ml of 0.9% w/v NaCl solution), and the dose corresponding to the treatment group was administered in a volume of 2 ml/kg of body weight.
Prior to the start of the experiment, two cycles were observed using vaginal swabs. Only animals having a regular 4-day cycle were used in the experiment. The animals were randomized to the treatment groups.
The animals were treated once in the proestrus, the day in the cycle when the LH peak occurs in the evening, with the test substances either alone or in combination. On the evening of the proestrus, the female animals mated with a male rat. Successive mating was confirmed by detection of vaginal sperms in the vaginal swab the next morning. The effect on fertility was determined 9-15 days after mating by the number of implantation sites of the animals. […]

ovulation = conditions: cited from earlier work

Sequence of EP4 subtype of the human PGE2 receptor (hEP4) (P35408 whole entry): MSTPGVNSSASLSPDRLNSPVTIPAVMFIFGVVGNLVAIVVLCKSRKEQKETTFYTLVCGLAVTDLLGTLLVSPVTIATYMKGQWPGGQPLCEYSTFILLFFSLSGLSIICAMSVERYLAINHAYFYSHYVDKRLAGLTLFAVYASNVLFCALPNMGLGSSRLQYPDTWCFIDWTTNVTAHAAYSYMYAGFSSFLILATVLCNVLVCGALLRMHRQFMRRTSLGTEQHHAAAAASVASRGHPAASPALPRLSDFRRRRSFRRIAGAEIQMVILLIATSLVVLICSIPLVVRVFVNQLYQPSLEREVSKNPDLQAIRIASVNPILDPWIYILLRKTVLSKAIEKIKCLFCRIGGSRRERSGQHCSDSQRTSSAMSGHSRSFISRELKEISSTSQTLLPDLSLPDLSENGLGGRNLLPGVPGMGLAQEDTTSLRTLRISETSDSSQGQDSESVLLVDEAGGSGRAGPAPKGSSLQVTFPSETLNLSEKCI

| SMILES | Selectivity hEP2/hDP (human PGD receptor (hDP)) | Selectivity hEP2/hEP4 [1] | also measured |
| --- | --- | --- | --- |
| Cc1c(C(=O)NCC(C)OC2CCC2)ccc2nn(CC3CN(C(=O)c4ccc(Cl)cc4)C3)cc12 (single isomer, unassigned) [Example 155, (S or R)-2-{[1-(4-chlorobenzoyl)azetidin-3-yl]methyl}-N-[2-(cyclobutyloxy)-propyl]-4-methyl-2H-indazole-5-carboxamide] | xxx (xxx >100) | xxx (xxx >100) | – |
| Cc1c(C(=O)NCC2CCCCO2)ccc2nn(CC3CCN(C(=O)c4ccc(Cl)cc4)CC3)cc12 (single isomer, unassigned) [Example 240, (R or S)-2-{[1-(4-chlorobenzoyl)piperidin-4-yl]methyl}-4-methyl-N-(3,4,5,6-tetrahydro-2H-pyran-2-ylmethyl)-2H-indazole-5-carboxamide] | xxx (xxx >100) | xxx (xxx >100) | – |
| Cc1c(C(=O)NCC2CCCCO2)ccc2nn(CC3CCN(C(=O)c4ccc(Cl)cc4)CC3)cc12 (single isomer, unassigned) [Example 241, (S or R)-2-{[1-(4-chlorobenzoyl)piperidin-4-yl]methyl}-4-methyl-N-(3,4,5,6-tetrahydro-2H-pyran-2-ylmethyl)-2H-indazole-5-carboxamide] | xxx (xxx >100) | xxx (xxx >100) | – |
| Cc1c(C(=O)NCC2COCCO2)ccc2nn(CC3CCN(C(=O)c4ccc(Cl)cc4)CC3)cc12 (single isomer, unassigned) [Example 415, (S or R)-2-{[1-(4-chlorobenzoyl)piperidin-4-yl]methyl}-N-(1,4-dioxan-2-yl-methyl)-4-methyl-2H-indazole-5-carboxamide] | xxx (xxx >100) | xxx (xxx >100) | – |
| Cc1c(C(=O)NCC2CCCCO2)ccc2nn(CC3CCN(C(=O)c4ccc(Oc5ccc(C(F)(F)F)cc5)cc4)CC3)cc12 (single isomer, unassigned) [Example 416, (R or S)-4-methyl-N-(3,4,5,6-tetrahydro-2H-pyran-2-ylmethyl)-2-[(1-{4-[4-(trifluoromethyl)phenoxy]benzoyl}piperidin-4-yl)methyl]-2H-indazole-5-carboxamide] | xxx (xxx >100) | xxx (xxx >100) | – |
| Cc1c(C(=O)NCC2CCCCO2)ccc2nn(CC3CCN(C(=O)c4ccc(Oc5ccc(C(F)(F)F)cc5)cc4)CC3)cc12 (single isomer, unassigned) [Example 417, (S or R)-4-methyl-N-(3,4,5,6-tetrahydro-2H-pyran-2-ylmethyl)-2-[(1-{4-[4-(trifluoromethyl)phenoxy]benzoyl}piperidin-4-yl)methyl]-2H-indazole-5-carboxamide] | xxx (xxx >100) | xxx (xxx >100) | – |
| Cc1c(C(=O)NCC2COCCO2)ccc2nn(CC3CCN(C(=O)c4ccc(Oc5ccc(C(F)(F)F)cc5)cc4)CC3)cc12 (single isomer, unassigned) [Example 418, (R or S)—N-(1,4-dioxan-2-ylmethyl)-4-methyl-2-[(1-{4-[4-(trifluoromethyl)-phenoxy]benzoyl}piperidin-4-yl)methyl]-2H-indazole-5-carboxamide] | xxx (xxx >100) | xxx (xxx >100) | – |
| Cc1c(C(=O)NCC2COCCO2)ccc2nn(CC3CCN(C(=O)c4ccc(Oc5ccc(C(F)(F)F)cc5)cc4)CC3)cc12 (single isomer, unassigned) [Example 419, (R or S)—N-(1,4-dioxan-2-ylmethyl)-4-methyl-2-[(1-{4-[4-(trifluoromethyl)-phenoxy]benzoyl}piperidin-4-yl)methyl]-2H-indazole-5-carboxamide] | xxx (xxx >100) | xxx (xxx >100) | – |
| COc1ccc2c(c1)c(CC(=O)O)c(C)n2C(=O)c1ccc(Cl)cc1 [Indomethacin, indomethacin, reference compound] | – | – | Absolute implantations number of 6 animals [2]: 67; Implantations per animal (mean ± SD) [2]: 11.2 ± 2.9; effect on ovulation (ovulation; 2×100 mg per day over 5 days (Killick and Elstein 1987)): inhibition of ovulation; delay of ovulation (ovulation; 3×50 mg per day for at least 3 days, 6 women, in 5 cases (Athanasious et al.)): 2 to 12 days |
| Cc1ccc(-c2cc(C(F)(F)F)nn2-c2ccc(S(N)(=O)=O)cc2)cc1 [celecoxib, 4-[5-(4-methylphenyl)-3-(trifluoromethyl)-1H-pyrazol-1-yl]benzenesulphonamide] | – | – | cycle length (ovulation; daily administration of 400 mg over the entire cycle, increased from 27.2+/−2.4 days (Edelmann et al. 2010)): 28.5 ± 2.5 days; increase in ovulatory dysfunction (ovulation; daily oral administration of 400 mg, depending on time and duration of administration (Edelmann et al. 2013)): 25-30% |
| CS(=O)(=O)c1ccc(C2=C(c3ccccc3)C(=O)OC2)cc1 [rofecoxib, 4-(4-mesylphenyl)-3-phenylfuran-2(5H)-one] | – | – | delay of ovulation (ovulation; 25 mg on 9 successive days, in 4 of 6 patients (Pall et al.)): more than 48 hours |
